Reference: US4861788A, “Antibacterial 1-normon-2-yl-heterocyclic compounds” (Beecham Group plc, priority 1983, dated 1989)
Converted amounts (≈) assume the structure as drawn. Like-named read-outs stand apart in the source and are kept apart here.

Assays:
M. hyopneumoniae JF 435 = experiment: MIC against Mycoplasma in vitro (Friis broth with agarose); type: cell-based; details: Mesomycoplasma hyopneumoniae, JF435, 144 h
M. hyopneumoniae Str. 11 = experiment: as above; type: cell-based; details: Mesomycoplasma hyopneumoniae
[1] = test system: M. hyopneumoniae J2206/183^b; experiment: as above; type: cell-based; details: Mesomycoplasma hyopneumoniae, 144 h
M. hyopneumoniae MS 16 = experiment: as above; type: cell-based; details: Mesomycoplasma hyopneumoniae, MS16, 144 h
M. hyopneumoniae TAM 6N = experiment: as above; type: cell-based; details: Mesomycoplasma hyopneumoniae, TAM6N, 144 h
[2] = test system: M. hyopneumoniae NCTC 101101; experiment: as above; type: cell-based; details: Mesomycoplasma hyopneumoniae, NCTC101101, 144 h
M. hyorhinis ATCC 25021 = experiment: as above; type: cell-based; details: Mesomycoplasma hyorhinis, ATCC25021, 144 h
[3] = test system: M. bovigenitalium ATCC 14173; experiment: as above; type: cell-based; details: 144 h
M. dispar NCTC 10125 = experiment: as above; type: cell-based; details: 144 h
Bacillus subtilis 6633 = experiment: MIC against human bacteria in vitro (nutrient agar, chocolated horse blood); type: cell-based
Description: (§1) The activity of the normonyl derivaties of the Examples against various bacteria which are important in diseases of humans, was assayed in vitro using serial dilutions in nurient agar with 5% chocolated horse blood.

[4] = test system: Corynebacterium xerosis 9755; experiment: as above; type: cell-based
Description: as §1

E. coli ESS = experiment: as above; type: cell-based; details: Escherichia coli
Description: as §1

E. coli NCTC 10418 [5] = experiment: as above; type: cell-based; details: Escherichia coli
Description: as §1

[6] = test system: Haemophilus influenzae Wy21; experiment: as above; type: cell-based
Description: as §1

K. aerogenes A = experiment: as above; type: cell-based; details: Klebsiella aerogenes
Description: as §1

P. mirabilis 889 = experiment: as above; type: cell-based
Description: as §1

[7] = test system: Pasteurella multocida 1633; experiment: as above; type: cell-based
Description: as §1

[8] = test system: Ps. aeruginosa NCTC 10662; experiment: as above; type: cell-based; details: Pseudomonas aeruginosa
Description: as §1

Sarcina lutea 8340 = experiment: as above; type: cell-based; details: Micrococcus luteus, 8340, 18 h
Description: as §1

Staph. aureus Oxford [9] = experiment: as above; type: cell-based; details: Staphylococcus aureus
Description: as §1

Staph. aureus Russell = experiment: as above; type: cell-based; details: Staphylococcus aureus
Description: as §1

Staph. aureus W2827 = experiment: as above; type: cell-based; details: Staphylococcus aureus
Description: as §1

Strep. agalactiae 2788-B = experiment: as above; type: cell-based; details: Streptococcus agalactiae
Description: as §1

Strep. faecalis I = experiment: as above; type: cell-based; details: Enterococcus faecalis
Description: as §1

[10] = test system: Strep. pyogenes R80/421-A; experiment: as above; type: cell-based; details: Streptococcus pyogenes
Description: as §1

Strep. spp. 64/848-C = experiment: as above; type: cell-based
Description: as §1

E. coli NCTC 10418 [11] = experiment: MIC against veterinary bacteria in vitro (Diagnostic Sensitivity Test Agar); details: Escherichia coli, NCTC10418, 18 h
Description: (§2) The activity of the normonyl derivatives of the Examples against various veterinarily important bacteria, was assayed in vitro using two-fold serial dilutions in Diagnostic Sensitivity Test Agar inoculated with 10^4 organisms.

E. coli E1 = experiment: as above; details: Escherichia coli, E1, 18 h
Description: as §2

Bord. bronchiseptica B09 = experiment: as above; details: Bordetella bronchiseptica, B09, 18 h
Description: as §2

Past. haemolytica PA5 = experiment: as above; details: Mannheimia haemolytica, PA5, 18 h
Description: as §2

[12] = test system: Staph. aureus B4 (pen. resistant); experiment: as above; details: Staphylococcus aureus, 18 h
Description: as §2

Strep. uberis SPU1 = experiment: as above; details: Streptococcus uberis, SPU1, 18 h
Description: as §2

Staph. aureus Oxford [13] = experiment: as above; details: Staphylococcus aureus, 18 h
Description: as §2

[14] = M. hyopneumoniae JF 435, 6 days at 37° C, read-out: MIC
[15] = 144 h, M. hyopneumoniae Str. 11, 6 days at 37° C, read-out: MIC
[16] = M. hyopneumoniae J2206/183^b, 6 days at 37° C, read-out: MIC
[17] = M. hyopneumoniae MS 16, 6 days at 37° C, read-out: MIC
[18] = M. hyopneumoniae TAM 6N, 6 days at 37° C, read-out: MIC
[19] = M. hyopneumoniae NCTC 101101, 6 days at 37° C, read-out: MIC
[20] = M. hyorhinis ATCC 25021, 6 days at 37° C, read-out: MIC
[21] = M. bovigenitalium ATCC 14173, 6 days at 37° C, read-out: MIC
[22] = M. dispar NCTC 10125, 6 days at 37° C, read-out: MIC
[23] = human, Bacillus subtilis 6633, 18 hours at 37° C, read-out: MIC
[24] = human, Corynebacterium xerosis 9755, 18 hours at 37° C, read-out: MIC
[25] = human, E. coli ESS, 18 hours at 37° C, read-out: MIC
[26] = NCTC10418, human, E. coli NCTC 10418, 18 hours at 37° C, read-out: MIC
[27] = human, Haemophilus influenzae Wy21, 18 hours at 37° C, read-out: MIC
[28] = human, K. aerogenes A, 18 hours at 37° C, read-out: MIC
[29] = Proteus mirabilis, human, P. mirabilis 889, 18 hours at 37° C, read-out: MIC
[30] = human, Pasteurella multocida 1633, 18 hours at 37° C, read-out: MIC
[31] = NCTC10662, human, Ps. aeruginosa NCTC 10662, 18 hours at 37° C, read-out: MIC
[32] = human, Staph. aureus Oxford, 18 hours at 37° C, read-out: MIC
[33] = human, Staph. aureus Russell, 18 hours at 37° C, read-out: MIC
[34] = human, Staph. aureus W2827, 18 hours at 37° C, read-out: MIC
[35] = human, Strep. agalactiae 2788-B, 18 hours at 37° C, read-out: MIC
[36] = human, Strep. faecalis I, 18 hours at 37° C, read-out: MIC
[37] = human, Strep. pyogenes R80/421-A, 18 hours at 37° C, read-out: MIC
[38] = human, Strep. spp. 64/848-C, 18 hours at 37° C, read-out: MIC

CC(=CC(=O)NN)CC1OCC(CC2OC2C(C)C(C)O)C(O)C1O (stereo not drawn) [Example 9, Monohydrazide A]
MIC (M. hyopneumoniae JF 435): 10 µg/mL (≈ 27.9 µM)
MIC (M. hyopneumoniae Str. 11; STR.11, 144 h): 5 µg/mL (≈ 13.9 µM)
MIC [1]: 10 µg/mL (≈ 27.9 µM)
MIC (M. hyopneumoniae MS 16): 5 µg/mL (≈ 13.9 µM)
MIC (M. hyopneumoniae TAM 6N): 10 µg/mL (≈ 27.9 µM)
MIC [2]: 10 µg/mL (≈ 27.9 µM)
MIC (M. hyorhinis ATCC 25021): 10 µg/mL (≈ 27.9 µM)
MIC [3]: 0.5 µg/mL (≈ 1.39 µM)
MIC (M. dispar NCTC 10125): 2.5 µg/mL (≈ 6.97 µM)
MIC (Bacillus subtilis 6633; Bacillus subtilis, 6633, 18 h): ≥ 100 µg/mL
MIC ([4]; Corynebacterium xerosis, 9755, 18 h): > 100 µg/mL
MIC (E. coli ESS; 18 h): ≥ 100 µg/mL
MIC (E. coli NCTC 10418 [5]; NCTC10418, 18 h): > 100 µg/mL
MIC ([6]; Haemophilus influenzae, WY21, 18 h): 2.5 µg/mL (≈ 6.97 µM)
MIC (K. aerogenes A; 18 h): > 100 µg/mL
MIC (P. mirabilis 889; Proteus mirabilis, 889, 18 h): ≥ 100 µg/mL
MIC ([7]; Pasteurella multocida, 1633, 18 h): 10 µg/mL (≈ 27.9 µM)
MIC ([8]; NCTC10662, 18 h): > 100 µg/mL
MIC (Sarcina lutea 8340): > 100 µg/mL
MIC (Staph. aureus Oxford [9]; 18 h): 100 µg/mL (≈ 279 µM)
MIC (Staph. aureus Russell; 18 h): ≥ 100 µg/mL
MIC (Staph. aureus W2827; W2827, 18 h): ≥ 100 µg/mL
MIC (Strep. agalactiae 2788-B; 2788B, 18 h): ≥ 100 µg/mL
MIC (Strep. faecalis I; 18 h): > 100 µg/mL
MIC ([10]; R80/421A, 18 h): 100 µg/mL (≈ 279 µM)
MIC (Strep. spp. 64/848-C; 18 h): ≥ 100 µg/mL
MIC (E. coli NCTC 10418 [11]): > 80 µg/mL
MIC (E. coli E1): > 80 µg/mL
MIC (Bord. bronchiseptica B09): > 80 µg/mL
MIC (Past. haemolytica PA5): 40 µg/mL (≈ 112 µM)
MIC [12]: 80 µg/mL (≈ 223 µM)
MIC (Strep. uberis SPU1): 80 µg/mL (≈ 223 µM)

COC(=O)CCCCCCCCn1nnnc1C=C(C)CC1OCC(CC2OC2C(C)C(C)O)C(O)C1O (stereo not drawn) [Example 13, 1-(8-Methoxycarbonyloctyl)-5-(1-normon-2-yl)-1H-tetrazole A]
MIC (M. hyopneumoniae JF 435; [14]): > 10 µg/mL
MIC (M. hyopneumoniae Str. 11; [15]): > 10 µg/mL
MIC [1, 16]: > 10 µg/mL
MIC (M. hyopneumoniae MS 16; [17]): > 10 µg/mL
MIC (M. hyopneumoniae TAM 6N; [18]): > 10 µg/mL
MIC [2, 19]: > 10 µg/mL
MIC (M. hyorhinis ATCC 25021; [20]): > 10 µg/mL
MIC [3, 21]: 5 µg/mL (≈ 9.28 µM)
MIC (M. dispar NCTC 10125; [22]): > 10 µg/mL
MIC (Bacillus subtilis 6633; [23]): > 64 µg/mL
MIC [4, 24]: > 64 µg/mL
MIC (E. coli ESS; [25]): > 64 µg/mL
MIC (E. coli NCTC 10418 [5]; [26]): > 64 µg/mL
MIC [6, 27]: 16 µg/mL (≈ 29.7 µM)
MIC (K. aerogenes A; [28]): > 64 µg/mL
MIC (P. mirabilis 889; [29]): > 64 µg/mL
MIC [7, 30]: 64 µg/mL (≈ 119 µM)
MIC [8, 31]: > 64 µg/mL
MIC (Staph. aureus Oxford [9]; [32]): > 64 µg/mL
MIC (Staph. aureus Russell; [33]): > 64 µg/mL
MIC (Staph. aureus W2827; [34]): > 64 µg/mL
MIC (Strep. agalactiae 2788-B; [35]): > 64 µg/mL
MIC (Strep. faecalis I; [36]): > 64 µg/mL
MIC [10, 37]: > 64 µg/mL
MIC (Strep. spp. 64/848-C; [38]): > 64 µg/mL
MIC (E. coli NCTC 10418 [11]): > 80 µg/mL
MIC (E. coli E1): > 80 µg/mL
MIC (Bord. bronchiseptica B09): 80 µg/mL (≈ 149 µM)
MIC (Past. haemolytica PA5): > 80 µg/mL
MIC [12]: > 80 µg/mL
MIC (Staph. aureus Oxford [13]): 40 µg/mL (≈ 74.3 µM)
MIC (Strep. uberis SPU1): 40 µg/mL (≈ 74.3 µM)

CC(=Cc1nnnn1CCCCCCCCC(=O)O)CC1OCC(CC2OC2C(C)C(C)O)C(O)C1O (stereo not drawn) [Example 14, Sodium 1-(8-carboxylatooctyl)-5-(1-normon-2-yl)-1H-tetrazole A]
MIC (M. hyopneumoniae JF 435; [14]): > 10 µg/mL
MIC (M. hyopneumoniae Str. 11; [15]): > 10 µg/mL
MIC [1, 16]: > 10 µg/mL
MIC (M. hyopneumoniae MS 16; [17]): > 10 µg/mL
MIC (M. hyopneumoniae TAM 6N; [18]): > 10 µg/mL
MIC [2, 19]: > 10 µg/mL
MIC (M. hyorhinis ATCC 25021; [20]): > 10 µg/mL
MIC [3, 21]: 10 µg/mL
MIC (M. dispar NCTC 10125; [22]): 10 µg/mL
MIC (Bacillus subtilis 6633; [23]): > 128 µg/mL
MIC [4, 24]: > 128 µg/mL
MIC (E. coli ESS; [25]): > 128 µg/mL
MIC (E. coli NCTC 10418 [5]; [26]): > 128 µg/mL
MIC [6, 27]: 128 µg/mL
MIC (K. aerogenes A; [28]): > 128 µg/mL
MIC (P. mirabilis 889; [29]): > 128 µg/mL
MIC [7, 30]: 64 µg/mL
MIC [8, 31]: > 128 µg/mL
MIC (Staph. aureus Oxford [9]; [32]): > 128 µg/mL
MIC (Staph. aureus Russell; [33]): > 128 µg/mL
MIC (Staph. aureus W2827; [34]): > 128 µg/mL
MIC (Strep. agalactiae 2788-B; [35]): > 128 µg/mL
MIC (Strep. faecalis I; [36]): > 128 µg/mL
MIC [10, 37]: > 128 µg/mL
MIC (Strep. spp. 64/848-C; [38]): > 128 µg/mL
MIC (E. coli NCTC 10418 [11]): > 80 µg/mL
MIC (E. coli E1): > 80 µg/mL
MIC (Bord. bronchiseptica B09): > 80 µg/mL
MIC (Past. haemolytica PA5): > 80 µg/mL
MIC [12]: > 80 µg/mL
MIC (Staph. aureus Oxford [13]): > 80 µg/mL
MIC (Strep. uberis SPU1): > 80 µg/mL
